Assay results reported in patent publication US9682955B2, “Quinazoline derivatives useful as CB-1 inverse agonists” (Janssen Pharmaceutica NV, priority 2014, dated 2017).
pEC50: −log10 of the molar value.

Tests used:
[1] = molecular target: Human CB2R (Cannabanoid receptor 2) (Homo sapiens (Human), UniProt P34972); test: CB-2 in vitro cAMP assay (HTRF); assay type: cell-based; conditions: mean where tested more than once
Method in brief: (§1)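 HEK-293 cells stably transfected with the human receptor, plated overnight at 4E5 cells/mL. Compounds given as 1/3 serial dilutions from 10 mM DMSO stocks. Stimulation in HBSS/5 mM HEPES/0.1% BSA with 0.5 mM IBMX and forskolin (1.5 μM in buffer); cAMP measured by competitive HTRF immunoassay (d2-cAMP, cryptate anti-cAMP) against a cAMP standard curve.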

[2] = molecular target: Human CB1R (Cannabanoid receptor 1) (Homo sapiens (Human), UniProt P21554); test: CB-1 in vitro cAMP assay (HTRF); assay type: cell-based; conditions: mean where tested more than once
Method in brief: as §1

Chain of Human CB1R (Cannabanoid receptor 1) (P21554 whole entry): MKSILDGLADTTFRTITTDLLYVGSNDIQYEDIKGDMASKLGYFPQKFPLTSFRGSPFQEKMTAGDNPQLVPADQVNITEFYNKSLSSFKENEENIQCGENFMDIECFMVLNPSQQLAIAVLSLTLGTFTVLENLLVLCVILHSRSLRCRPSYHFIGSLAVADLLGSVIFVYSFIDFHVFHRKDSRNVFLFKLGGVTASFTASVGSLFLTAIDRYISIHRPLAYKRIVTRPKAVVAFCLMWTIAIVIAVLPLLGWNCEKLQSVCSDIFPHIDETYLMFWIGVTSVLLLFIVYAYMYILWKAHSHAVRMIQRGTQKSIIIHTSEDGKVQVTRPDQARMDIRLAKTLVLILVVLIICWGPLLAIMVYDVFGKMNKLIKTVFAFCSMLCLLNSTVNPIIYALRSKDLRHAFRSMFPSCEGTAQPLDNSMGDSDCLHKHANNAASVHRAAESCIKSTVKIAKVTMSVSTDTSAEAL
Chain of Human CB2R (Cannabanoid receptor 2) (P34972 whole entry): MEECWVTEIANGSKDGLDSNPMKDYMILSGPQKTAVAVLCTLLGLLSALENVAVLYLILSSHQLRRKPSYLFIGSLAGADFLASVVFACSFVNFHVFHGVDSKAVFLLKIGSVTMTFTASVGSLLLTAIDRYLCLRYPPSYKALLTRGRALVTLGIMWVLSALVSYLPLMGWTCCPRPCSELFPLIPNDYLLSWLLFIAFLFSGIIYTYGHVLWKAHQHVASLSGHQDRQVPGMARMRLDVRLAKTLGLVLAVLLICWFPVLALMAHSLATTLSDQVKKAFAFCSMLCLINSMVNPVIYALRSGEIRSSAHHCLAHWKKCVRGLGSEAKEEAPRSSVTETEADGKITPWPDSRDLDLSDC

pEC50 [1] | pEC50 [2] | SMILES
7.17 | 8.40 | COC(=O)c1ccc(N2CCC(Nc3ncnc4ccc(C(c5ccc(Cl)cc5)c5ccc(Cl)cc5)cc34)CC2)cc1 [Compound #94, methyl 4-(4-((6-(bis(4-chlorophenyl)methyl)quinazolin-4-yl)amino)piperidin-1-yl)benzoate]
5.10 | 6.63 | NC(=O)CS(=O)(=O)N1CCC(Nc2ncnc3ccc(C(c4ccc(Cl)cc4)c4ccc(Cl)cc4)cc23)CC1 [Compound #98, 2-((4-((6-(bis(4-chlorophenyl)methyl)quinazolin-4-yl)amino)piperidin-1-yl)sulfonyl)acetamide]
5.07 | 9.00 | OC1(c2ccccc2)CCC(Nc2ncnc3ccc(C(c4ccc(Cl)cc4)c4ccc(Cl)cc4)cc23)CC1 (stereo not drawn) [Compound #99, 4-((6-(bis(4-chlorophenyl)methyl)quinazolin-4-yl)amino)-1-phenylcyclohexanol]
< 5.00 | 6.36 | CS(=O)(=O)Nc1nc(NC2CCN(S(=O)(=O)C(F)(F)F)CC2)c2cc(C(c3ccc(Cl)cc3)c3ccc(Cl)cc3)ccc2n1 [Compound #100, N-(6-(bis(4-chlorophenyl)methyl)-4-((1-((trifluoromethyl)sulfonyl)piperidin-4-yl)amino)quinazolin-2-yl)methanesulfonamide]
< 5.00 | 8.00 | O=C1CC(Nc2ncnc3ccc(C(c4ccc(Cl)cc4)c4ccc(Cl)cc4)cc23)CCN1c1ccccc1 (stereo not drawn) [Compound #102, 4-((6-(bis(4-chlorophenyl)methyl)quinazolin-4-yl)amino)-1-phenylpiperidin-2-one]
< 5.00 | 8.40 | COc1nc(NC2CCN(S(=O)(=O)C(F)(F)F)CC2)c2cc(C(c3ccc(Cl)cc3)c3ccc(Cl)cc3)ccc2n1 [Compound #103, 6-(bis(4-chlorophenyl)methyl)-2-methoxy-N-(1-((trifluoromethyl)sulfonyl)piperidin-4-yl)quinazolin-4-amine]

Continued, compound first:

SMILES | pEC50 [1] | pEC50 [2]
O=C(NCCO)c1ccc(N2CCC(Nc3ncnc4ccc(C(c5ccc(Cl)cc5)c5ccc(Cl)cc5)cc34)CC2)cc1 [Compound #84, 4-(4-((6-(bis(4-chlorophenyl)methyl)quinazolin-4-yl)amino)piperidin-1-yl)-N-(2-hydroxyethyl)benzamide] | 6.49 | 7.59
COc1nc(NCc2ccc(C(F)(F)F)cc2)c2cc(C(c3ccc(Cl)cc3)c3ccc(Cl)cc3)ccc2n1 [Compound #85, 6-(bis(4-chlorophenyl)methyl)-2-methoxy-N-(4-(trifluoromethyl)benzyl)quinazolin-4-amine] | < 5.00 | 8.00
NC(=O)CCC(=O)N1CCC(Nc2ncnc3ccc(C(c4ccc(Cl)cc4)c4ccc(Cl)cc4)cc23)CC1 [Compound #86, 4-(4-((6-(bis(4-chlorophenyl)methyl)quinazolin-4-yl)amino)piperidin-1-yl)-4-oxobutanamide] | 5.05 | 5.61
NC(=O)c1ccc(N2CCC(Nc3ncnc4ccc(C(c5ccc(Cl)cc5)c5ccc(Cl)cc5)cc34)CC2)cc1 [Compound #90, 4-(4-((6-(bis(4-chlorophenyl)methyl)quinazolin-4-yl)amino)piperidin-1-yl)benzamide] | 6.34 | 7.47
COCCOc1nc(NCc2ccc(C(F)(F)F)cc2)c2cc(C(c3ccc(Cl)cc3)c3ccc(Cl)cc3)ccc2n1 [Compound #91, 6-(bis(4-chlorophenyl)methyl)-2-(2-methoxyethoxy)-N-(4-(trifluoromethyl)benzyl)quinazolin-4-amine] | < 5.00 | 7.52
O=C(O)c1ccc(N2CCC(Nc3ncnc4ccc(C(c5ccc(Cl)cc5)c5ccc(Cl)cc5)cc34)CC2)cc1 [Compound #92, 4-(4-((6-(bis(4-chlorophenyl)methyl)quinazolin-4-yl)amino)piperidin-1-yl)benzoic acid] | 6.71 | 6.16
